Assay results from patent US20230372433A1, “NANOPARTICLE FOR ANTI-CANCER PEPTIDES AND USES THEREOF” (KING'S COLLEGE LONDON, priority 2020, published 2023).
Like-named read-outs stand apart in the source and are kept apart here.

Key:
[1] = tested on: HEK293T (human embryonic kidney cell); test: MTT cytotoxicity assay, HEK293T; assay type: cell-based; settings: 72 hr, MTT; read-out: IC50 HEK293T
[2] = tested on: HMLER-shEcad (human breast cancer stem cell); test: MTT cytotoxicity assay, HMLER-shEcad; assay type: cell-based; settings: 72 hr, MTT; read-out: IC50 HMLER-shEcad
[3] = tested on: U2OS (human bone osteosarcoma); test: MTT cytotoxicity assay, U2OS; assay type: cell-based; settings: 72 hr
[4] = Tryptophan fluorescent binding assay, POPC vesicles; settings: 50 μM peptide, PBS pH 7.4
Method: (§1) In brief, 50 μM peptides were fixed and incubated with titrated POPC vesicles (black) or 3POPC/1POPG vesicles (grey) at concentrations of 0, 12.5, 25, 50, 100, 250, 500, 1000, 2500, and 5000 μM in phosphate buffered saline (1X, pH 7.4). The lipid concentration that causes 50% peptide binding was determined using a tryptophan fluorescent binding assay and the values are shown as lipid per peptide.
(§2) The lipids 1-palmitoyl-2-oleoyl-sn-glycero-3-phosphocholine (POPC), 1-palmitoyl-2-oleoyl-snglycero-3-phospho-(1′-rac-glycerol) (POPG) were purchased from Avanti Polar Lipids and dissolved in chloroform. Large unilamellar vesicles (LUVs) were produced by extrusion through 100 nm pore filter using an extruder and filters purchased from Avanti Polar Lipids.
(§3) Peptides (50 μM) and POPC/POPG LUVs (600 μM) were prepared in 10 mM phosphate buffer (pH 7.0). The solutions were incubated and measured after 60 minutes. Excitation was fixed at 280 nm (slit 9 nm) and emission was collected from 300 to 450 nm (slit 9 nm). The spectra were recorded using a Synergy H1 Hybrid Multi-Mode Reader (FIG. 3A) and Cytation™ 5 Cell Imaging Multi-Mode Reader (FIG. 2) from BioTek and were averaged over 3 scans.
(§4) Table 3 illustrates the lipid concentration-induced 50% peptide binding onto a liposome. 50 μM peptide was fixed and incubated with titrated lipid (POPC vesicles or 3POPC/1POPG vesicles) at concentrations of 0, 12.5, 25, 50, 100, 250, 500, 1000, 2500, and 5000 μM in phosphate buffered saline (1X, pH 7.4). The lipid concentration that causes 50% peptide binding was determined using tryptophan fluorescent binding assay and the values are shown as lipid per peptide. IN-terminus is free, C-terminus: —W—NH2.

[5] = ANTS/DPX liposome leakage assay, 3POPC/1POPG vesicles; assay type: biochemical; settings: for Peptide Concentration-induced 50% ANTS/DPX leakage at pH 4.8 (L/P) 3POPC/1POPG Vesicle / Peptide Concentration-induced 50% ANTS/DPX leakage at pH 7.4 (L/P) 3POPC/1POPG Vesicle: 0.5 mM vesicles
Method: (§5) In brief, 0.5 mM POPC vesicles (grey) or POPC:POPG vesicles (ratio 3:1, black) were incubated with peptide concentrations of 0, 0.02, 0.04, 0.08, 0.16, 0.32, 0.64, 1.25, 2.5, 5, 10, and 20 μM in each A) hydrochloric acid-adjusted phosphate buffered saline (1X, pH 4.8) and B) phosphate buffered saline (1X, pH 7.4).
as §2
(§6) 5 mM ANTS (8-aminonaphthalene-1,3,6-trisulfonic acid, disodium salt) and 12.5 mM DPX (p-xylene-bis-pyridinium bromide) were entrapped in 0.1 μm diameter extruded vesicles with lipids. Gel filtration chromatography using a Sephadex G-100 (GE Healthcare Life Sciences Inc) was used to remove external free ANTS/DPX from LUVs with entrapped contents. LUVs were diluted to 0.5 mM and used to measure the leakage activity by addition of aliquots of peptides. Leakage was measured after 3 h incubation. 10% Triton was used as the positive control to measure the maximum leakage of the vesicle. Fluorescence emission spectra were recorded using excitation and emission wavelength of 350 nm and 510 nm for ANTS/DPX using a BioTek Synergy H1 Hybrid Multi-Mode Reader.
(§7) Table 4 illustrates peptide concentration-induced 50 ANTS/DPX liposome leakage. 0.5 mM POPC and 3POPC/1POPG vesicles were fixed and incubated with titrated peptide concentration (0, 0.02, 0.04, 0.08, 0.16, 0.32, 0.64, 1.25, 2.5, 5, 10, and 20 μM) each in phosphate buffered saline (1X, pH 7.4) and hydrochloric acid-adjusted phosphate buffered saline (1X, pH 4.8). The values are shown as lipid per peptide. IN-terminus is free, C-terminus: —W—NH2.

[6] = tested on: HMLER (human breast cancer bulk cell); test: MTT cytotoxicity assay, HMLER; assay type: cell-based; settings: 72 hr, MTT; read-out: IC50 HMLER
[7] = ANTS/DPX liposome leakage assay, POPC vesicles; assay type: biochemical; settings: 0.5 mM vesicles
Method: as §5, §2, §6, §7

[8] = tested on: MCF-10A (human breast epithelial cell); test: cells
Excerpt: HMLER (human mammary endothelial cancer cells), HMLER-shEcad (human mammary endothelial cancer stem cells), and MCF-10A (healthy human mammary endothelial) cells were maintained in Mammary Epithelial Cell Growth Medium (MEGM) with supplements and growth factors: bovine pituitary extract (BPE), hydrocortisone, human epidermal growth factor (hEGF), insulin, and gentamicin/amphotericin-B. HEK293T (human embryonic kidney cell), and U2OS (homo sapiens bone osteosarcoma) cells were maintained in Dulbecco's Modified Eagle's Medium (DMEM) with a final concentration of 10% fetal bovine serum. The cells were grown in T75 flask at 310 K in a humidified atmosphere containing 5% CO2.
The colourimetric MTT (3-(4,5-dimethylthiazol-2-yl)-2,5-diphenyltetrazolium bromide) assay was used to determine the toxicity of the anti-cancer peptides and conventional anti-cancer drugs. 5×10^3 cells were seeded in each well of a 96-well microplate. The cells were incubated overnight. Elevated concentrations of the compounds (0, 0.1, 0.2, 0.4, 0.8, 1.6, 3.1, 6.3, 12.5, 25, 50 and 100 μM) were added and incubated for 72 hr with a total volume 200 μL. The stock solutions of the compounds were prepared as 5 mM solutions in DMSO and diluted using media or in pure water. The final concentration of DMSO in each well was either 0.5% or 0% and this amount was present in the untreated control. After 72 hr, 20 μL of a 4 mg/mL solution of MTT in PBS was added to each well, and the plate was incubated for an additional 4 hr. The MEGM/MTT mixture was aspirated and 100 μL of DMSO was added to dissolve the resulting purple formazan crystals. The absorbance of the solutions in each well was read at 550 nm wavelength. Absorbance values were normalized to either DMSO-containing or non DMSO-containing control wells and plotted as concentration of test compound versus % cell viability. ICso values were interpolated from the resulting dose dependent curves.
The peptides were screened against several different human cell lines and their cytotoxicity were determined. Cell lines utilised include MCF-10A (human breast epithelial cell), HMLER (human breast cancer bulk cell), HMLER-shEcad (human breast cancer stem cell), HEK293T (human embryonic kidney cell), and U2OS (human bone osteosarcoma).

[9] = Tryptophan fluorescent binding assay, 3POPC/1POPG vesicles; settings: 50 μM peptide, PBS pH 7.4
Method: as §1, §2, §3, §4

[10] = read-out: IC50 MCF-10A, 72 hr, MTT

Molecule | IC50 [1] [µM] | IC50 [2] [µM] | IC50 [3] [µM] | Lipid Concentration-induced 50% Peptide Binding (L/P) POPC Vesicle [4] [L/P] | Peptide Concentration-induced 50% ANTS/DPX leakage at pH 4.8 (L/P) 3POPC/1POPG Vesicle ([5]; pH 4.8) [L/P] | Peptide Concentration-induced 50% ANTS/DPX leakage at pH 7.4 (L/P) 3POPC/1POPG Vesicle [5] [L/P] | liposome leakage activity from anionic vesicle at pH 4.8 ([5]; compared with zwitterionic vesicle, pH 4.8) | IC50 [6] [µM] | Peptide Concentration-induced 50% ANTS/DPX leakage at pH 4.8 (L/P) POPC Vesicle [7] [L/P] | Peptide Concentration-induced 50% ANTS/DPX leakage at pH 7.4 (L/P) POPC Vesicle [7] [L/P] | IC50 [8] [µM] | Lipid Concentration-induced 50% Peptide Binding (L/P) 3POPC/1POPG Vesicle [9] [L/P] | IC50 [8, 10] [µM]
CC(C)C[C@H](NC(=O)CN)C(=O)N[C@@H](CC(C)C)C(=O)N[C@@H](CC(=O)O)C(=O)N[C@@H](CC(C)C)C(=O)N[C@@H](CC(C)C)C(=O)N[C@@H](CCC(=O)O)C(=O)N[C@@H](CC(C)C)C(=O)N[C@@H](CC(C)C)C(=O)N[C@@H](CC(C)C)C(=O)N[C@@H](CCCCN)C(=O)N[C@@H](C)C(=O)N[C@@H](C)C(=O)NCC(=O)N[C@@H](Cc1c[nH]c2ccccc12)C(N)=O [DEK] | 6.8 ± 0.85 | 0.7 ± 0.07 | 19.9 ± 2.65 | 1.50 | 469 | 773 | relatively higher liposome leakage activity | 1.14 ± 0.52 | 10 | 747 | ≥ 100 | 1.67 | –
GLDDLAKLLLKLAG [25B2, reference compound] | 25.2 ± 2.19 | 11.7 ± 0.49 | 54 ± 8.43 | – | – | – | – | 8.36 ± 0.61 | – | – | – | – | 26.7 ± 3.33
GLLDLLHLLLHAAG [DHH] | 6.4 ± 0.42 | 11.9 ± 0.14 | 55.9 ± 18.9 | 0.67 | 98 | 692 | – | 21.4 ± 2.47 | 106 | 684 | – | 0.28 | –
GLLELLHLLLHAAG [EHH] | 5.9 ± 0.14 | 16.1 ± 3.18 | – | 0.94 | 80 | 981 | – | 25.4 ± 2.76 | 386 | 1043 | – | 0.69 | –
GLLHLLELLLHAAG [HEH] | 8.8 ± 1.7 | 11 ± 1.06 | – | 0.88 | 24 | 505 | – | 28.6 ± 10.8 | 173 | 995 | – | 3.50 | –
GLLHLLELLLKAAG [HEK] | 6.95 ± 1.63 | 3.45 ± 2.19 | – | 0.44 | 411 | 386 | – | 2.35 ± 1.06 | 97 | 755 | – | 0.46 | 29.8 ± 7.35
GLLHLLHLLLEAAG [HHE] | 18.4 ± 3.75 | 10.8 ± 0.78 | 53.2 ± 5.3 | 1.00 | 113 | 411 | – | 16.7 ± 2.26 | 143 | 842 | – | 0.75 | –
GLLHLLHLLLHAAG [HHH] | 30.6 ± 4.81 | 9.5 ± 0.99 | – | 0.46 | 50 | 469 | – | 21.1 ± 6.93 | 173 | 1133 | – | 0.82 | 79 ± 11.3
